The values that follow are results of earlier work, collected in patent publication US20190275032A1 (Boehringer Ingelheim International GmbH, priority 2016, published 2019).

The test system of series [1] is patients with IPF. To be noted: both INPULSIS trials, nintedanib 150 mg twice daily versus placebo.
Series [2] relates to PDGFR-α and-β. To be noted: normal human lung fibroblasts in vitro.
Series [3] deals with human lung fibroblasts.
In series [4] the test system is mouse models of IPF.
The test system of series [5] is patients with IPF.

For the molecule `COC(=O)c1ccc2c(c1)NC(=O)/C2=C(\Nc1ccc(N(C)C(=O)CN2CCN(C)CC2)cc1)c1ccccc1` [Nintedanib, 3-Z-[1-(4-(N-((4-methyl-piperazin-1-yl)-methylcarbonyl)-N-methyl-amino)-anilino)-1-phenyl-methylene]-6-methoxycarbonyl-2-indolinone], the “reduction of the annual rate of decline in FVC (mL/year)” value in series [1] was “approximately 50%”. Further, where the note is “Child Pugh A, Child Pugh B”, the “exposure in patients with hepatic impairment” value was “Exposure increased”. The “elimination via biliary/faecal excretion” value (in vivo) is recorded as > 90%. Further, in series [2], the “PDGFR-α and -β activation” value is given as “inhibit”. Moreover, the “PDGF- or FGF-2-stimulated migration of lung fibroblasts” value in series [3] (fibroblasts from patients with IPF) is recorded as “attenuated”. In series [3] (primary human lung fibroblasts from IPF patients), the “TGF-β-induced fibroblast to myofibroblast transformation” value is reported as “inhibited”. Moreover, the total lung collagen result in series [4] (IPF mouse models) was “significant reductions”. In addition, the “lymphocyte and neutrophil counts in the bronchoalveolar lavage fluid” value in series [4] (two different mouse models of IPF) was “significant reductions”.
Regarding `Cc1ccc(=O)n(-c2ccccc2)c1` [Pirfenidone, 5-methyl-1-phenyl-2(1H)-Pyridinone], the “primary endpoint of change from baseline FVC % predicted” value in series [5] (ASCEND Phase III trial) was “met the primary endpoint”. Also, the “primary FVC lung function endpoint” value in series [5] (international Phase III CAPACITY program) is given as “demonstrated efficacy on the primary FVC lung function endpoint in only one of two confirmatory trials”. In series [5] (two local trials in Japan), the “decline of vital capacity” value is “reduced decline”.
